Data on one compound can be found in US11726101B2, “Adrenomedullin assays and methods for determining mature adrenomedullin” (SPHINGOTEC GMBH, priority 2011, dated 2023).

Series [1] is described as follows: Stability of human Adrenomedullin in human Citrate plasma at 24° C., quantified by hADM immunoassay (MR-ADM/CT-ADM). The class given is in vitro ADME. The conditions noted are these: for Average ADM recovery (N = 5) / Loss of immune reactivity %/h: human Citrate plasma; for Average ADM recovery (N = 5): 10 ng ADM/ml; for Average loss of immune reactivity: average over time points, human plasma, MR-ADM/CT-ADM sandwich assay. The method, then: At selected time points, aliquots were frozen at −20° C.

The conditions of series [2]: using other assay methods (Hinson 2000); cited from earlier work.

Turning to `CC[C@H](C)[C@H](NC(=O)[C@H](CCC(N)=O)NC(=O)[C@H](Cc1c[nH]cn1)NC(=O)[C@H](C)NC(=O)[C@H](CC(C)C)NC(=O)[C@H](CCCCN)NC(=O)[C@H](CCC(N)=O)NC(=O)[C@@H](NC(=O)[C@@H](NC(=O)[C@@H]1CSSC[C@H](NC(=O)CNC(=O)[C@H](Cc2ccccc2)NC(=O)[C@H](CO)NC(=O)[C@H](CCCNC(=N)N)NC(=O)[C@H](CC(C)C)NC(=O)CNC(=O)[C@H](CCC(N)=O)NC(=O)[C@H](Cc2ccccc2)NC(=O)[C@H](CC(N)=O)NC(=O)[C@H](CC(N)=O)NC(=O)[C@H](CCSC)NC(=O)[C@H](CO)NC(=O)[C@H](CCC(N)=O)NC(=O)[C@H](CCCNC(=N)N)NC(=O)[C@@H](N)Cc2ccc(O)cc2)C(=O)N[C@@H](CCCNC(=N)N)C(=O)N[C@@H](Cc2ccccc2)C(=O)NCC(=O)N[C@@H]([C@@H](C)O)C(=O)N1)[C@@H](C)O)C(C)C)C(=O)N[C@@H](Cc1ccc(O)cc1)C(=O)N[C@@H](CCC(N)=O)C(=O)N[C@@H](Cc1ccccc1)C(=O)N[C@H](C(=O)N[C@@H](CC(=O)O)C(=O)N[C@@H](CCCCN)C(=O)N[C@@H](CC(=O)O)C(=O)N[C@@H](CCCCN)C(=O)N[C@@H](CC(=O)O)C(=O)N[C@@H](CC(N)=O)C(=O)N[C@H](C(=O)N[C@@H](C)C(=O)N1CCC[C@H]1C(=O)N[C@@H](CCCNC(=N)N)C(=O)N[C@@H](CO)C(=O)N[C@@H](CCCCN)C(=O)N[C@H](C(=O)N[C@@H](CO)C(=O)N1CCC[C@H]1C(=O)N[C@@H](CCC(N)=O)C(=O)NCC(=O)N[C@@H](Cc1ccc(O)cc1)C(N)=O)[C@@H](C)CC)C(C)C)[C@@H](C)O` [hADM], the “Average ADM recovery (N = 5)” value in series [1] (0 h) is given as 100; in series [1] (2 h), 99.2; in series [1] (4 h), 96.4; in series [1] (8 h) it was 88.2. For the same compound, the “Loss of immune reactivity %/h” value in series [1] (2 h) is 0.4 %/h; in series [1] (4 h), 0.8 %/h; in series [1] (8 h) it was 1.5 %/h. Further, the “Average loss of immune reactivity” value in series [1] is listed as “Average: 0.9%/h”; in series [1] (listed as ADM) it was 0.9 %/h. Moreover, the plasma half life in series [2] is listed as 22 min.
